Data taken from ChEMBL document CHEMBL4665675 (J Med Chem, 2020).

What was measured:
[1] = tested on: A549; test: Cytotoxicity against human A549 cells by MTT assay; format: functional, cell-based
[2] = Inhibition of porcine tubulin polymerization by UV/visible spectrophotometry; set-up: species or system Sus scrofa
[3] = tested on: HT-29; test: Cytotoxicity against human HT-29 cells incubated for 48 hrs by MTT assay; format: functional, cell-based; details: HT-29, 48 h
[4] = tested on: P388; test: Antiproliferative activity against mouse P388 cells incubated for 72 hrs by Coulter counter method; format: functional, cell-based; details: P388, 72 h
[5] = tested on: MIA PaCa-2; test: Cytotoxicity against human Mia PaCa-2 cells incubated for 48 hrs by MTT assay; format: functional, cell-based; details: MIA PaCa-2, 48 h
[6] = Antiproliferative activity against human KB-8511 cells incubated for 96 hrs by spectrophotometric method; format: functional, cell-based; details: KB-ChR-8-5-11, 96 h
[7] = tested on: PC-3; test: Cytotoxicity against human PC-3 cells incubated for 48 hrs by MTT assay; format: functional, cell-based; details: PC-3, 48 h
[8] = tested on: A549; test: Cytotoxicity against human A549 cells incubated for 48 hrs by MTT assay; format: functional, cell-based; details: A549, 48 h
[9] = tested on: KB 3-1; test: Antiproliferative activity against human KB-31 cells incubated for 96 hrs by spectrophotometric method; format: functional, cell-based; details: KB 3-1, 96 h
[10] = Cytotoxicity against human HGF-1 cells incubated for 48 hrs by MTT assay; format: cell-based; details: HGF1, 48 h
[11] = tested on: BXPC-3; test: Cytotoxicity against human BxPC-3 cells incubated for 48 hrs by MTT assay; format: functional, cell-based; details: BXPC-3, 48 h
[12] = Cytotoxicity against human BHP-1 cells incubated for 48 hrs by MTT assay; format: cell-based; details: BHP1, 48 h
[13] = tested on: HEK293; test: Cytotoxicity against HEK293 cells incubated for 48 hrs by MTT assay; format: cell-based; details: Homo sapiens, HEK293, 48 h
[14] = tested on: HeLa; test: Cytotoxicity against human HeLa cells after 24 to 72 hrs by Cell Titer Blue assay; format: cell-based
[15] = tested on: PANC-1; test: Antiproliferative activity against human PANC1 cells incubated for 72 hrs by WST assay; format: functional, cell-based; details: PANC-1, 72 h
[16] = Inhibition of calf brain tubulin by turbidimetry; set-up: species or system Bos taurus
[17] = tested on: DU-145; test: Antiproliferative activity against human DU145 cells incubated for 72 hrs by WST assay; format: functional, cell-based; details: DU-145, 72 h
[18] = tested on: SF-268; test: Cytotoxicity against human SF-268 cells by calcein AM reagent based fluorescence method; format: functional, cell-based
[19] = tested on: HCT-116; test: Cytotoxicity against human HCT-116 cells by cell titer-glow assay; format: functional, cell-based
[20] = tested on: SF-268; test: Cytotoxicity against human SF-268 cells by cell titer-glow assay; format: functional, cell-based
[21] = tested on: HCT-116; test: Cytotoxicity against human HCT-116 cells by calcein AM reagent based fluorescence method; format: functional, cell-based
[22] = tested on: KB; test: Antiproliferative activity against human KB cells incubated for 36 hrs; format: functional, cell-based
[23] = tested on: P388; test: Antiproliferative activity against mouse P388 cells incubated for 36 hrs; format: functional, cell-based; details: P388, 36 h
[24] = tested on: HCT-8; test: Antiproliferative activity against human HCT-8 cells incubated for 36 hrs; format: functional, cell-based; details: HCT-8, 36 h
[25] = tested on: A549; test: Antiproliferative activity against human A549 cells incubated for 36 hrs; format: functional, cell-based; details: A549, 36 h
[26] = tested on: TE-671; test: Antiproliferative activity against human TE-671 cells incubated for 36 hrs; format: functional, cell-based; details: TE-671, 36 h
[27] = Inhibition of bovine brain tubulin polymerization preincubated for 15 mins followed by GTP addition; set-up: species or system Bos taurus
[28] = tested on: RPMI-7951; test: Antiproliferative activity against human RPMI-7951 cells incubated for 36 hrs; format: functional, cell-based; details: RPMI-7951, 36 h
[29] = tested on: HaCaT; test: Cytotoxicity against human HaCaT cells incubated for 72 hrs by MTT assay; format: functional, cell-based
[30] = tested on: PANC-1; test: Cytotoxicity against human PANC1 cells incubated for 72 hrs by MTT assay; format: functional, cell-based; details: PANC-1, 72 h
[31] = tested on: BJAB; test: Cytotoxicity against human BJAB cells; format: functional, cell-based
[32] = tested on: K562; test: Cytotoxicity against human K562 cells; format: functional, cell-based
[33] = tested on: Jurkat; test: Cytotoxicity against human Jurkat cells; format: functional, cell-based
[34] = tested on: HaCaT; test: Cytotoxicity against human HaCaT cells; format: functional, cell-based
[35] = tested on: HBL-100; test: Cytotoxicity against human HBL100 cells; format: functional, cell-based
[36] = molecular target: Tubulin; test: Inhibition of tubulin polymerization (unknown origin); format: protein-complex assay, Homo sapiens
[37] = organism: Rattus norvegicus; test: Inhibition of [3H]colchicine binding to rat brain tubulin at 25 uM relative to control
[38] = organism: Bos taurus; test: Inhibition of bovine brain tubulin polymerization preincubated for 15 mins followed by GTP addition and measured for 30 mins by spectrophotometric method

Compound: COc1cc2c(c(OC)c1OC)-c1ccc(OC)c(=O)cc1[C@@H](NC(=O)CCCCCCC(=O)C1C3CC4CC(C3)CC1C4)CC2 (stereo not given in full)
- IC50 [1]: ≤ 5 nM

Compound: COc1ccc2c(c1O)COCc1cc(OC)c(OC)c(OC)c1-2
- IC50 [2]: 1000 nM

Compound: COc1cc2c(c(OC)c1OC)-c1ccc(OC)c(=O)cc1[C@@H](NC(C)=O)CC2 [COLCHICINE]
- IC50 [3]: 42 nM
- IC50 [4]: 29 nM
- IC50 [5]: 42 nM
- IC50 [6]: 540 nM
- IC50 [7]: 42 nM
- IC50 [8]: 42 nM
- IC50 [9]: 9 nM
- IC50 [10]: 42 nM
- IC50 [11]: 42 nM
- IC50 [2]: 3900 nM
- IC50 [12]: 42 nM
- IC50 [13]: 42 nM
- IC50 [14]: 58 nM

Compound: COc1ccc2c(c1)[C@@H](NC(C)=O)CCc1cc(OC)c(OC)c(OC)c1-2
- IC50 [15]: 80 nM
- IC50 [16]: 300 nM
- IC50 [17]: 780 nM

Compound: COc1cc2c(c(OC)c1OC)-c1ccc(OC)c(=O)cc1[C@@H](NC(=O)CCCCCC(=O)OC1C3CC4CC(C3)CC1C4)CC2 (stereo not given in full)
- IC50 [1]: ≤ 5 nM

Compound: COc1cc2c(c(OC)c1OC)-c1ccc(OC)c(=O)cc1[C@@H](NC(=O)CN(OC)C1C[C@@H](O)[C@@H](O)[C@@H](CO)O1)CC2 (stereo not given in full)
- IC50 [18]: 300 nM
- IC50 [19]: 300 nM
- IC50 [20]: 300 nM
- IC50 [21]: 300 nM

Compound: COC(=O)NC1CCc2cc(OC)c(OC)c(OC)c2-c2ccc(F)cc21 (stereo not given)
- IC50 [15]: 7000 nM
- IC50 [17]: 1400 nM

Compound: CCOC(=O)OC[C@H]1Cc2cc(OC)c(OC)c(OC)c2-c2ccc(SC)c(=O)cc21
- IC50 [22]: 11 nM
- IC50 [23]: 16 nM
- IC50 [24]: 179 nM
- IC50 [25]: 0.001 nM
- IC50 [26]: 0.001 nM
- IC50 [27]: 3700 nM
- IC50 [28]: 0.001 nM

Compound: CCCCCCCCCCCCCCCC(=O)OCC(COP(=O)([O-])OCC[N+](C)(C)C)OC(=O)CCCCCCCCCc1n[nH]c(CC(=O)OCC(=O)N[C@H]2CCc3cc(OC)c(OC)c(OC)c3-c3ccc(C(=O)OC)cc32)n1 (stereo not given in full)
- IC50 [29]: 400 nM
- IC50 [30]: 400 nM

Compound: COc1cc2c(c(OC)c1OC)-c1ccc(O)cc1[C@@H](NC(C)=O)CC2 [N-ACETYLCOLCHINOL]
- IC50 [15]: 4400 nM
- IC50 [17]: 720 nM

Compound: COc1cc2c(c(OC)c1OC)-c1ccc(OC)c(=O)cc1[C@@H](n1cc(CCC(=O)Cc3ccc4oc(=O)ccc4c3)nn1)CC2
- IC50 [31]: 60 nM

Compound: COc1cc2c(c(OC)c1OC)-c1ccc(F)cc1C(NC(C)=O)CC2 (stereo not given)
- IC50 [15]: 7900 nM
- IC50 [17]: 760 nM

Compound: CCCCCCCCCCCCCCCCCC(=O)OCc1cn([C@H]2CCc3cc(OC)c(OC)c(OC)c3-c3ccc(OC)c(=O)cc32)nn1
- IC50 [32]: 3.5 nM
- IC50 [31]: 3.5 nM
- IC50 [33]: 3.5 nM
- IC50 [34]: 3.5 nM
- IC50 [35]: 3.5 nM

Compound: COc1cc2c(c(OC)c1OC)-c1ccc(OC)c(=O)cc1C(=O)CC2
- IC50 [36]: 1100 nM

Compound: COc1cc2c(c(OC)c1OC)-c1ccc(OC)c(=O)cc1[C@@H](NC(=O)CN(OC)C1C[C@@H](O)[C@@H](O)CO1)CC2 (stereo not given in full)
- IC50 [18]: 300 nM
- IC50 [19]: 300 nM
- IC50 [20]: 300 nM
- IC50 [21]: 300 nM

Compound: COc1cc2c(c(OC)c1OC)-c1ccc(OC)c(=O)cc1[C@@H](NC(=O)CN(OC)C1C[C@H](O)[C@H](O)[C@@H](C)O1)CC2 (stereo not given in full)
- IC50 [18]: 300 nM
- IC50 [19]: 300 nM
- IC50 [20]: 300 nM
- IC50 [21]: 300 nM

Compound: C=C1COc2cc3c(cc21)-c1c(cc(OC)c(OC)c1OC)CC[C@@H]3NC(=O)CO
- IC50 [29]: 3 nM
- IC50 [30]: 16 nM

Compound: COc1cc2c(c(OC)c1OC)-c1ccc(OC)c(=O)cc1[C@@H](NC(=O)CN(OC)C1O[C@@H]3OC(=O)[C@@H](O)[C@@H]3[C@@H]1O)CC2 (stereo not given in full)
- IC50 [18]: 300 nM
- IC50 [19]: 300 nM
- IC50 [20]: 300 nM
- IC50 [21]: 300 nM

Compound: COc1cc2c(c(OC)c1OC)-c1ccc(OC)c(=O)cc1[C@@H](NC(=O)CN(OC)C1C[C@H](O)[C@H](O)CO1)CC2 (stereo not given in full)
- IC50 [18]: 300 nM
- IC50 [19]: 300 nM
- IC50 [20]: 300 nM
- IC50 [21]: 300 nM

Compound: COC(=O)c1ccc2c(c1)[C@@H](NC(=O)CO)CCc1cc(OC)c(OC)c(OC)c1-2
- IC50 [29]: 16 nM
- IC50 [30]: 80 nM

Compound: COc1cc2c(c(OC)c1OC)-c1ccc(OC)c(=O)cc1[C@@H](NC(=O)CN(OC)C1O[C@H](C(C)=O)[C@H](O)[C@H](O)[C@H]1O)CC2 (stereo not given in full)
- IC50 [18]: 300 nM
- IC50 [19]: 300 nM
- IC50 [20]: 300 nM
- IC50 [21]: 300 nM

Compound: CCCCCCCCCCCCCCCC(=O)OCc1cn([C@H]2CCc3cc(OC)c(OC)c(OC)c3-c3ccc(OC)c(=O)cc32)nn1
- IC50 [32]: 3.5 nM
- IC50 [31]: 3.5 nM
- IC50 [33]: 3.5 nM
- IC50 [34]: 3.5 nM
- IC50 [35]: 3.5 nM

Compound: COc1cc2c(c(OC)c1OC)-c1ccc(SC)c(=O)cc1[C@@H](CO)C2
- IC50 [22]: 144 nM
- IC50 [23]: 144 nM
- IC50 [24]: 160 nM
- IC50 [25]: 240 nM
- IC50 [26]: 1320 nM
- IC50 [27]: 3600 nM
- IC50 [28]: 134 nM

Compound: C=C1COc2cc3c(cc21)-c1c(cc(OC)c(OC)c1OC)CC[C@@H]3NC(=O)COC(=O)Cc1nc(CCCCCCCCCC(=O)OC(COC(=O)CCCCCCCCCCCCCCC)COP(=O)([O-])OCC[N+](C)(C)C)n[nH]1 (stereo not given in full)
- IC50 [29]: 400 nM
- IC50 [30]: 400 nM

Compound: COc1cc2c(c(OC)c1OC)-c1ccc(Nc3ccc(Cl)c(C(F)(F)F)c3)c(=O)cc1[C@@H](NC(C)=O)CC2
- IC50 [3]: 35 nM
- IC50 [5]: 35 nM
- IC50 [7]: 35 nM
- IC50 [8]: 35 nM
- IC50 [10]: 35 nM
- IC50 [11]: 35 nM
- IC50 [12]: 35 nM
- IC50 [13]: 35 nM

Compound: C=C1Cc2cc(OC)c(OC)c(OC)c2-c2ccc(SC)c(=O)cc21
- IC50 [22]: 140 nM
- IC50 [23]: 22 nM
- IC50 [24]: 160 nM
- IC50 [25]: 252 nM
- IC50 [26]: 0.084 nM
- IC50 [27]: 2400 nM
- IC50 [28]: 0.084 nM

Compound: COc1cc2c(c(OC)c1OC)-c1ccc(OC)c(=O)cc1CCC2
- IC50 [36]: 2600 nM

Compound: COc1cc2c(c(OC)c1OC)-c1cccc(=O)cc1[C@@H](NC(C)=O)CC2
- inhibition [37]: 87%

Compound: CCCCCCCCCCCC(=O)OCc1cn([C@H]2CCc3cc(OC)c(OC)c(OC)c3-c3ccc(OC)c(=O)cc32)nn1
- IC50 [31]: 4 nM

Compound: COc1cc2c(c(OC)c1OC)-c1ccc(OC)c(=O)cc1CC=C2
- IC50 [36]: 1600 nM

Compound: COc1c(CN(C)C(C)=O)c2c(c(OC)c1OC)-c1ccc(OC)c(=O)cc1[C@@H](NC(C)=O)CC2
- IC50 [6]: > 1000 nM
- IC50 [9]: > 1000 nM
- inhibition [38]: 0%
